Measurements: publication PMC8556396, “Statin-mediated disruption of Rho GTPase prenylation and activity inhibits respiratory syncytial virus infection” (Communications Biology, 2021)
Values joined by “and” are separate entries in the source; they are usually repeats but may differ in a detail not shown here. Identical values can stand only once. “Also recorded” adds a separate entry of the source.

Experiments:
[1] = test system: RSV A2; experiment: Immunofluorescence staining and microscopy of RSV F and N
Method: HEp-2 cells were seeded to No. 1 glass coverslips (1014355117NR1, Thermo Fisher Scientific) for high-resolution confocal microscopy, or black, flat, microclear-bottom 96-well plates (655096, Greiner Bio-One) for high-throughput quantification of RSV F and N immunofluorescence. Cells were infected with RSV A2 (MOI 0.5). At 48 h p.i., cells were fixed in 4% paraformaldehyde for 30 min and permeabilized with 0.3% Triton X-100 for 10 min at room temperature. F and N proteins were probed using mouse anti-RSV F (RSV3216) and mouse anti-RSV N (RSV3132) mAbs (Bio-Rad Antibodies) diluted 1:500 in PBS + 0.1% Tween-20 (PBST), or mouse anti-RSV F mAb Alexa Fluor 488 conjugate (Millipore Sigma, 133/1H) diluted 1:200 in PBST over a 1-h incubation at room temperature. This was followed by detection with secondary anti-mouse Fab fragments conjugated to Alexa Fluor 488 (4408) or 647 (4410) (Cell Signaling Technology) diluted 1:1000 in PBST over a 1-h incubation at room temperature. Fluorescent images were acquired using either the Cellomics ArrayScan VTI HCS Reader at ×10 magnification (for quantification) or Olympus IX81 Spinning Disk Confocal microscope at ×60 magnification with oil immersion (for high-resolution images). F and N immunofluorescence was quantified in CellProfiler and normalized to total nuclear count.

[2] = test system: RSV-GFP; experiment: RSV-GFP infection of HEp-2 cells, automated imaging, dose-response; format: cell-based, Respiratory syncytial virus; details: for EC50: HEp-2, 2 h; for inhibition at 0.75 µM: read-out: RSV-GFP inhibition (%), log Conc (uM) -0.12494; for inhibition at 0.5 µM: read-out: RSV-GFP inhibition (%), log Conc (uM) -0.30103; for inhibition at 0.05 µM: read-out: RSV-GFP inhibition (%), log Conc (uM) -1.30103; for RSV-GFP inhibition (%): 48 h p.i.; for inhibition at 0.25 µM: read-out: RSV-GFP inhibition (%), log Conc (uM) -0.60206; for inhibition at 0.1 µM: read-out: RSV-GFP inhibition (%), log Conc (uM) -1; for inhibition at 0.01 µM: read-out: RSV-GFP inhibition (%), log Conc (uM) -2
Method: HEp-2 cells were seeded to black, flat, microclear-bottom 96-well plates (655096, Greiner Bio-One) at a density of 5000 cells per well and incubated at 37 °C/5% CO2 overnight. The following morning, cells were washed twice with serum-free EMEM and treated with RSV-GFP (MOI 0.5) in a minimal volume of serum-free media for 90 min under frequent agitation. Unbound virus was then removed and replaced with fresh serum-containing EMEM. All drug additions were performed 2 h post-viral exposure, unless otherwise stated. Nuclei were stained with Hoechst 33342 (H3570, Thermo Fisher Scientific) (at a final concentration of 1 µg/mL) 48 h p.i. and imaging was performed using the Cellomics ArrayScan VTI HCS Reader at ×10 magnification (SPARC BioCentre, The Hospital for Sick Children, Toronto, ON).
Automated quantification of infection rates from fluorescent images were performed in CellProfiler (v2.2.0)[86]. Major steps in the image analysis pipeline included: (1) background subtraction and smoothing, (2) segmentation of nuclei, (3) segmentation of GFP-fluorescent area, (4) object masking, and (5) measurement of nuclear number, size, and intensity. Infection rate was quantified from the ratio of nuclei within GFP-fluorescent area to the total number of nuclei (Fig. 1b). This method of analysis accounts for in vitro syncytium formation induced by RSV, whereby a single infected cell may arise from the fusion of multiple cells. Mean nuclear fluorescent intensity and size was quantified as a measure of cell viability. […]

[3] = test system: RSV-GFP; experiment: microbe, parasite or virus in culture; format: cell-based, Respiratory syncytial virus; details: human respiratory syncytial virus, HEp-2, read-out: RSV-GFP inhibition (%)
Method: The following morning, cells were washed twice with serum-free EMEM and treated with RSV-GFP (MOI 0.5) in a minimal volume of serum-free media for 90 min under frequent agitation. Unbound virus was then removed and replaced with fresh serum-containing EMEM. All drug additions were performed 2 h post-viral exposure, unless otherwise stated.
Automated quantification of infection rates from fluorescent images were performed in CellProfiler (v2.2.0)[86]. Major steps in the image analysis pipeline included: (1) background subtraction and smoothing, (2) segmentation of nuclei, (3) segmentation of GFP-fluorescent area, (4) object masking, and (5) measurement of nuclear number, size, and intensity. Infection rate was quantified from the ratio of nuclei within GFP-fluorescent area to the total number of nuclei (Fig. 1b). This method of analysis accounts for in vitro syncytium formation induced by RSV, whereby a single infected cell may arise from the fusion of multiple cells. Mean nuclear fluorescent intensity and size was quantified as a measure of cell viability.
The MicroSource […] Collection (Discovery Systems Inc.) consisting of 2400 compounds was screened using the previously outlined RSV-GFP infection assay protocol. Robot-assisted addition of drugs was performed within 1 h of RSV-GFP infection and infection rates were assayed 48 h p.i. Drugs were provided as 10 mM stocks in DMSO and serial diluted to a final concentration of 10 µM, resulting in a final DMSO concentration of 0.1% v/v. […] Hits were selected based on the criteria that: (a) the tested drug caused a >50% reduction in infection rate and (b) was not overtly cytotoxic (<10% change in mean nuclear intensity relative to DMSO control). Z-factors were calculated on a per-plate basis to monitor assay quality.

[4] = test system: RSV A2; experiment: Quantification of infectious virus production (plaque assay); format: cell-based, Respiratory syncytial virus; details: Fig 7A; Rhosin 50 uM, EHT 1864 20 uM, ML 141 10 uM; replicate values
Method: HEp-2 cells were seeded to six-well plates at a density of 1 × 10^6 cells per well and incubated overnight at 37 °C/5% CO2. The following morning, cells were infected with RSV A2 (MOI 1.0) and treated with drugs 2 h post-viral exposure. The supernatant, containing progeny virions, was collected 48 h p.i., snap frozen, and stored at −80 °C. Quantification of infectious virus particles was performed by a traditional plaque assay. HEp-2 cells were seeded to six-well plates at a density of 1.5 × 10^6 cells per well and grown to 90% confluency. Cells were incubated with serial dilutions of the collected supernatants for 90 min at 37 °C/5% CO2 under frequent agitation. The inoculant was then removed and replaced with 4 mL of 1:1 4% FBS DMEM-F12/1% agarose. Plates were incubated for 5 days at 37 °C/5% CO2. Cells were then fixed with 10% formalin for 30 min at room temperature. After fixation and removal of agarose from each well, the cells were stained with 0.05% neutral red and plaques were quantified under a dissecting microscope.

[5] = human respiratory syncytial virus, HEp-2, RSV-GFP MOI 0.5, treated 2 h post-viral exposure
[6] = human respiratory syncytial virus, HEp-2, 48 h, replicate values
[7] = GGPP 10.0 µM in the presence of atorvastatin 3.5 µM

## CC1(O)CCOC(=O)C1 (racemic) [Mevalonolactone, DL-mevalonolactone]
[1]; mevalonolactone 1 mM with atorvastatin 3.5 µM or simvastatin 1.5 µM
  effect of mevalonolactone co-treatment in statin-treated cells: restore viral protein intensity to DMSO (0.1% v/v) baseline

## O=c1cc(-c2ccccc2)oc2ccc(O)cc12 [6-Hydroxyflavone]
[2]; [5]
  EC50: 705 nM
[2]; [6]
  inhibition at 0.75 µM: 56.1%
  inhibition at 0.5 µM: 36.6%
  inhibition at 0.05 µM: 11.4%
[3]
  inhibition at 10 µM: 74.1%

## CNc1nc(C)c(-c2nc(Nc3cccc(S(N)(=O)=O)c3)ncc2F)s1 [CDKI-73]
[2]; CDKI-73 0.5 µM or 1.0 µM
  effect on RSV-GFP infection rate: did not reduce infection rate; also recorded: did not reduce RSV-GFP infection rates
[2]; CDKI-73 0.5 uM, replicate values
  RSV-GFP inhibition (%): 15.9529% and 3.2849% and 2.901% and 0.6729%
[2]; CDKI-73 1 uM, replicate values
  RSV-GFP inhibition (%): 5.404% and 7.553% and -1.2228% and 1.11%

## C[C@H]1O[C@@H](O[C@H]2[C@@H](O)C[C@H](O[C@H]3[C@@H](O)C[C@H](O[C@H]4CC[C@@]5(C)[C@H](CC[C@@H]6[C@@H]5CC[C@]5(C)[C@@H](C7=CC(=O)OC7)CC[C@]65O)C4)O[C@@H]3C)O[C@@H]2C)C[C@H](O)[C@@H]1O [Digitoxin]
[2]; [5]
  EC50: 11 nM
[2]; [6]
  inhibition at 0.5 µM: 99.9%
  inhibition at 0.25 µM: 98.6%
  inhibition at 0.1 µM: 78.3%
  inhibition at 0.05 µM: 73%
  inhibition at 0.01 µM: 55%
[2]; human respiratory syncytial virus, HEp-2, 48 h, read-out: RSV-GFP inhibition (%), log Conc (uM) -0.75696, replicate values
  inhibition at […]: 99.8%
[2]; human respiratory syncytial virus, HEp-2, 48 h, read-out: RSV-GFP inhibition (%), log Conc (uM) -1.39794, replicate values
  inhibition at 0.04 µM: 78.7%
[2]; human respiratory syncytial virus, HEp-2, 48 h, read-out: RSV-GFP inhibition (%), log Conc (uM) -1.52288, replicate values
  inhibition at 0.03 µM: 82%
[2]; human respiratory syncytial virus, HEp-2, 48 h, read-out: RSV-GFP inhibition (%), log Conc (uM) -1.69897, replicate values
  inhibition at 0.02 µM: 68.5%
[3]
  inhibition at 10 µM: 98.8%

## C[C@H]1O[C@@H](O[C@H]2[C@@H](O)C[C@H](O[C@H]3[C@@H](O)C[C@H](O[C@H]4CC[C@@]5(C)[C@H](CC[C@@H]6[C@@H]5C[C@@H](O)[C@]5(C)[C@@H](C7=CC(=O)OC7)CC[C@]65O)C4)O[C@@H]3C)O[C@@H]2C)C[C@H](O)[C@@H]1O [Digoxin]
[2]; [5]
  EC50: 26 nM
[2]; [6]
  inhibition at 0.75 µM: 99.9%
  inhibition at 0.5 µM: 100%
  inhibition at 0.25 µM: 86.5%
  inhibition at 0.1 µM: 85.5%
  inhibition at 0.05 µM: 68.3%
  inhibition at 0.01 µM: 25.2%
[2]; human respiratory syncytial virus, HEp-2, 48 h, read-out: RSV-GFP inhibition (%), log Conc (uM) -2.12494, replicate values
  inhibition at 0.0075 µM: 18%
[2]; human respiratory syncytial virus, HEp-2, 48 h, read-out: RSV-GFP inhibition (%), log Conc (uM) -3, replicate values
  inhibition at 0.001 µM: 9.48%
[3]
  inhibition at 10 µM: 99.1%

## C[C@]12CC[C@@H]3c4ccc(O)cc4CC[C@H]3[C@@H]1CC[C@@H]2O [Estradiol, 17β-Estradiol]
[2]; [5]
  EC50: 1620 nM
[2]; [6]
  inhibition at 0.5 µM: 7.41%
[3]
  inhibition at 10 µM: 70.7%

## CC(C)=CCC/C(C)=C/CC/C(C)=C/CC/C(C)=C/COP(=O)(O)OP(=O)(O)O.N.N.N [GGPP, geranylgeranyl pyrophosphate ammonium salt]
[1]; [7]
  restoration of F protein intensity: 33.4 ± 3.5%
  restoration of N protein intensity: 50.4 ± 1.6%

## O=C(Nc1ccc([N+](=O)[O-])cc1Cl)c1cc(Cl)ccc1O [Niclosamide]
[2]; [5]
  EC50: 443 nM
[2]; [6]
  inhibition at 0.75 µM: 73.9%
  inhibition at 0.5 µM: 63.8%
[2]; human respiratory syncytial virus, HEp-2, 48 h, read-out: RSV-GFP inhibition (%), log Conc (uM) -0.25964, replicate values
  inhibition at 0.55 µM: 59.2%
[2]; human respiratory syncytial virus, HEp-2, 48 h, read-out: RSV-GFP inhibition (%), log Conc (uM) -0.34679, replicate values
  inhibition at 0.45 µM: 30.5%
[2]; human respiratory syncytial virus, HEp-2, 48 h, read-out: RSV-GFP inhibition (%), log Conc (uM) -0.39794, replicate values
  inhibition at 0.4 µM: 21.3%
[2]; human respiratory syncytial virus, HEp-2, 48 h, read-out: RSV-GFP inhibition (%), log Conc (uM) -0.45593, replicate values
  inhibition at 0.35 µM: 18.9%
[2]; human respiratory syncytial virus, HEp-2, 48 h, read-out: RSV-GFP inhibition (%), log Conc (uM) -0.52288, replicate values
  inhibition at 0.3 µM: 4.57%
[2]; human respiratory syncytial virus, HEp-2, 48 h, read-out: RSV-GFP inhibition (%), log Conc (uM) -0.69897, replicate values
  inhibition at 0.2 µM: 1.85%
[3]
  inhibition at 10 µM: 93.9%

## C#C[C@]1(O)CC[C@H]2[C@@H]3CCC4=CC(=O)CC[C@@H]4[C@H]3CC[C@@]21C [Norethindrone, 19-Norethindrone]
[2]; [5]
  EC50: 705 nM
[2]; human respiratory syncytial virus, HEp-2, 48 h, read-out: RSV-GFP inhibition (%), log Conc (uM) -0.09691, replicate values
  inhibition at 0.8 µM: 61.9%
[2]; human respiratory syncytial virus, HEp-2, 48 h, read-out: RSV-GFP inhibition (%), log Conc (uM) -0.22185, replicate values
  inhibition at 0.6 µM: 41.8%
[2]; [6]
  inhibition at 0.5 µM: 19.2%
[3]
  inhibition at 10 µM: 75.2%

## N[C@H](Cc1c[nH]c2ccccc12)C(=O)N/N=C/c1ccc2nccnc2c1 [Rhosin]
[4]
  Virus titre (log10 PFU/mL): 5.176 log10 PFU/mL and 5.204 log10 PFU/mL and 5.079 log10 PFU/mL and 5.322 log10 PFU/mL

## CC(C)[C@@H]1NC(=O)[C@H](C)OC(=O)[C@@H](C(C)C)NC(=O)[C@@H](C(C)C)OC(=O)[C@H](C(C)C)NC(=O)[C@H](C)OC(=O)[C@@H](C(C)C)NC(=O)[C@@H](C(C)C)OC(=O)[C@H](C(C)C)NC(=O)[C@H](C)OC(=O)[C@@H](C(C)C)NC(=O)[C@@H](C(C)C)OC1=O [Valinomycin]
[2]; human respiratory syncytial virus
  EC50: 39 nM
[2]; [6]
  inhibition at 0.75 µM: 74.6%
  inhibition at 0.5 µM: 71.6%
  inhibition at 0.25 µM: 78.6%
  inhibition at 0.1 µM: 76.7%
  inhibition at 0.05 µM: 77.4%
[2]; human respiratory syncytial virus, HEp-2, 48 h, read-out: RSV-GFP inhibition (%), log Conc (uM) -1.04576, replicate values
  inhibition at 0.09 µM: 77.4%
[2]; human respiratory syncytial virus, HEp-2, 48 h, read-out: RSV-GFP inhibition (%), log Conc (uM) -1.22185, replicate values
  inhibition at 0.06 µM: 71.2%
[3]
  inhibition at 10 µM: 88%

## ML 141
[4]
  Virus titre (log10 PFU/mL): 5 log10 PFU/mL and 5.079 log10 PFU/mL and 5.176 log10 PFU/mL and 5.204 log10 PFU/mL
